Measurements as given in ChEMBL document CHEMBL1201862, “PubChem BioAssay data set” (2004).
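Briefly, cells in 96-well plates were exposed to five compound concentrations for 48 h, and endpoints were estimated by linear interpolation. Here, GI50 denotes the concentration required for 50% inhibition of growth.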 Calls of active or inactive are those of the source. No stated cut-off is given here; in the data, active = GI50 up to about 1.1 µM and inactive = higher.

Key:
Experiment in all cases: NCI-60 cell line screen, 48 h
[1] = tested on: SNB-75
[2] = tested on: SK-MEL-5
[3] = tested on: ACHN
[4] = tested on: SF-295
[5] = tested on: Malme-3M
[6] = tested on: SF-539
[7] = tested on: T47D
[8] = tested on: OVCAR-3
[9] = tested on: MDA-MB-435
[10] = tested on: UACC-62
[11] = tested on: NCI-H226
[12] = tested on: UACC-257
[13] = tested on: HOP-92
[14] = tested on: SF-268
[15] = tested on: KM12
[16] = tested on: SN12C
[17] = tested on: NCI-H460
[18] = tested on: SNB-19
[19] = tested on: HL-60

Row | Structure (SMILES) | GI50 [1] | GI50 [2] | GI50 [3] | GI50 [4] | GI50 [5] | GI50 [6] | GI50 [7] | GI50 [8] | GI50 [9] | GI50 [10] | GI50 [11] | GI50 [12] | GI50 [13] | GI50 [14] | GI50 [15] | GI50 [16] | GI50 [17] | GI50 [18] | GI50 [19]
1 | C/C(=N\Nc1nc2cc(C)ccc2s1)c1ccccn1 | 2.23 µM (inactive) | 0.404 µM (active) | 0.25 µM (active) | 1.15 µM (inactive) | 0.332 µM (active) | 1.39 µM (inactive) | 0.589 µM (active) | 0.441 µM (active) | 0.982 µM (active) | 0.596 µM (active) | 0.348 µM (active) | 0.5 µM (active) | 0.282 µM (active) | 0.505 µM (active) | 0.794 µM (active) | 0.401 µM (active) | 0.69 µM (active) | 1.38 µM (inactive) | 0.158 µM (active)
2 | CCN(CC)C(=O)Cn1c2ccccc2[n+]2cc(N)ccc12 | > 100 µM (inactive) | > 100 µM (inactive) | > 100 µM (inactive) | > 100 µM (inactive) | > 100 µM (inactive) | > 100 µM (inactive) | > 100 µM (inactive) | > 100 µM (inactive) | > 100 µM (inactive) | > 100 µM (inactive) | > 100 µM (inactive) | > 100 µM (inactive) | > 100 µM (inactive) | > 100 µM (inactive) | > 100 µM (inactive) | – | > 100 µM (inactive) | > 100 µM (inactive) | > 100 µM (inactive)
3 | O=C(Nc1cc2c(=O)oc3ccccc3c2oc1=O)c1cccnc1 | 62.4 µM (inactive) | > 100 µM (inactive) | 50 µM (inactive) | > 100 µM (inactive) | > 100 µM (inactive) | > 100 µM (inactive) | > 100 µM (inactive) | > 100 µM (inactive) | > 100 µM (inactive) | > 100 µM (inactive) | > 100 µM (inactive) | > 100 µM (inactive) | > 100 µM (inactive) | – | > 100 µM (inactive) | > 100 µM (inactive) | > 100 µM (inactive) | 73.5 µM (inactive) | 48 µM (inactive)
4 | Cc1ccc(/N=N/c2c(C)nn(C(=O)CC(=O)Nc3ccccc3)c2C)cc1C | 59.7 µM (inactive) | > 100 µM (inactive) | > 100 µM (inactive) | > 100 µM (inactive) | > 100 µM (inactive) | > 100 µM (inactive) | > 100 µM (inactive) | > 100 µM (inactive) | > 100 µM (inactive) | > 100 µM (inactive) | > 100 µM (inactive) | > 10 µM (inactive) | > 100 µM (inactive) | > 100 µM (inactive) | > 100 µM (inactive) | > 100 µM (inactive) | > 100 µM (inactive) | – | > 100 µM (inactive)
5 | COc1ccc2c3c(ccc2c1)NC(C(=O)O)CC3 (stereo not drawn) | 57.7 µM (inactive) | 27.4 µM (inactive) | 73.8 µM (inactive) | 58.5 µM (inactive) | > 100 µM (inactive) | 80.4 µM (inactive) | 26.9 µM (inactive) | 35.6 µM (inactive) | 60.4 µM (inactive) | 40.5 µM (inactive) | > 100 µM (inactive) | > 100 µM (inactive) | 79.4 µM (inactive) | 39.1 µM (inactive) | 67.3 µM (inactive) | 63.1 µM (inactive) | 49.8 µM (inactive) | 56.8 µM (inactive) | 26.1 µM (inactive)
6 | O=C1c2c(ccc3c2CCC3)CC12Cc1cc3c(cc1C2)CCC3 | 87.7 µM (inactive) | > 100 µM (inactive) | > 100 µM (inactive) | > 100 µM (inactive) | 20.1 µM (inactive) | > 100 µM (inactive) | > 100 µM (inactive) | > 100 µM (inactive) | > 100 µM (inactive) | – | > 100 µM (inactive) | > 100 µM (inactive) | > 100 µM (inactive) | > 100 µM (inactive) | > 100 µM (inactive) | > 100 µM (inactive) | > 100 µM (inactive) | > 100 µM (inactive) | > 100 µM (inactive)
7 | CCOC(=O)C[n+]1cccc(C2(c3cc4ccccc4[nH]3)OCCO2)c1 | > 100 µM (inactive) | > 100 µM (inactive) | > 100 µM (inactive) | > 100 µM (inactive) | > 100 µM (inactive) | > 100 µM (inactive) | > 100 µM (inactive) | > 100 µM (inactive) | > 100 µM (inactive) | > 100 µM (inactive) | > 100 µM (inactive) | > 100 µM (inactive) | > 100 µM (inactive) | > 100 µM (inactive) | > 100 µM (inactive) | – | > 100 µM (inactive) | > 100 µM (inactive) | > 100 µM (inactive)
